{"source": "PubChem BioAssay AID2060336", "about": "(Molecular Pharmacology Branch, DTP, NCI, 2025)", "system": "958767-090-R-J1-PDC spheroid growth", "assay": "Anticancer human tumor 958767-090-R-J1-PDC patient-derived head and neck squamous carcinoma cell line growth inhibition [IpAb]", "conditions": "spheroids with HUVEC and MSC; for pIC50: curve of first compound; for viability, T/C: stronger effect = lower value", "source_text": "Combinatorial screen of targeted agents with ipatasertib and abemaciclib in multi-cell type tumor spheroids\nA high-throughput screen of multi-cell type tumor spheroids was designed to identify active combinations of targeted small molecules and ipatasertib or abemaciclib. Complex spheroids include a stromal component modeled by human endothelial cells (HUVEC) and fibroblasts modeled by human mesenchymal stem cells (MSCs). The concentration ranges selected for each drug and investigational agent were based upon clinically achievable concentrations if the clinical Cmax of the agent was known.\nCompounds. The drugs and investigational agents: ipatasertib (NSC767898), abemaciclib(NSC768073), selumetinib (NSC741078), trametinib (758246), adavosertib (NSC754352), everolimus (NSC733504), sapanisertib (NSC764658), vemurafenib (NSC761431), venetoclax (NSC766270), copanlisib (NSC809693), apelisib (NSC765974), palbociblib (NSC758247), vemurafenib (NSC761431), dabrafenib (NSC764134), ravoxertinib (NSC781343), BMS-387032 (NSC767048), sotorasib (NSC818433), talazoparib (NSC767125) and afursertib (NSC778305), were obtained from the National Cancer Institute (NCI) Developmental Therapeutics Program Chemical Repository. The FDA-approved anticancer drug set is available from the NCI Developmental Therapeutics Program. […] The stock solutions were prepared in dimethyl sulfoxide (DMSO, Sigma-Aldrich, St. Louis, MO, cat. D2650) at 800-fold the tested concentration and stored at -70 degrees C prior to their use. All drugs and investigational agents were tested over a range starting from a high concentration at or near the clinical Cmax and decreasing in half-log increments. If the clinical Cmax for an agent had not been determined, the highest concentration tested was 10 microM.\nNCI60 Cell Culture. NCI60 cell lines were obtained from the NCI Developmental Therapeutics Program Tumor Repository. For each lot of cells, the Repository performed Applied Biosystems AmpFLSTR Identifiler testing with PCR amplification to confirm consistency with the published Identifier STR profile for each cell line. Cells were kept in continuous culture for no more than 20 passages. The optimal seeding densities for each of the cell lines at each time point assessed were determined prior to performing the concentration response studies. Briefly, the NCI60 human tumor lines were grown as monolayers in RPMI 1640 medium supplemented with 10% FBS and 2 mmol/L L-glutamine.\nAn additional 9 lines were from the NCI60 cell line panel including MDA-MB-231 breast carcinoma, MDA-MB-468 breast carcinoma, MCF7 breast carcinoma, Hs578T breast carcinoma, MALME-3M melanoma, SK-MEL-2 melanoma, SK-OV-3 ovarian carcinoma, DU-145 prostate carcinoma, PC-3 prostate carcinoma, all cell lines along with major genetic alterations are listed on Table 2. Pooled donor human umbilical vein endothelial cells (HUVEC, Lonza, cat. CC-2519) and human mesenchymal stem cells (hMSC, Lonza, cat. PT-2501) were purchased from Lonza (Walkersville, MD).\nPDMR cell lines were grown in complete medium (DC medium): Dulbecco's modified Eagle's medium (DMEM)/F12 supplemented with 5% fetal bovine serum (FBS), 2 mM L-glutamine, 100 U/mL penicillin and 100 µg/ml streptomycin, 0.4 µg/ml hydrocortisone, 10 ng/ml epidermal growth factor (EGF) recombinant human protein, 24 µg/mL adenine, and 0.1 mg/mL primocin. During culture from frozen stock vials, PDMR cells were cultured in the same medium containing 10 µM Y-27632 (see Table 3). The PDCs were cultured in complete DMEM/F12 media without 10 microM Y-27632 dihydrochloride for at least two passages prior to the screen. The pooled donor HUVEC and hMSC were cultured in endothelial cell growth medium 2 (PromoCell, Heidelberg, Germany, cat. C-22011) and mesenchymal stem cell growth medium 2 (PromoCell, cat. C-28009), respectively. For all experiments, HUVEC and hMSC were used at passages </=5.\n[…]", "key": {"[1]": {"conditions": "second compound 0.1 µM, first compound 0.0316 µM"}, "[2]": {"conditions": "second compound 0.1 µM, first compound 0.1 µM"}, "[3]": {"conditions": "second compound 0.316 µM, first compound 0.0316 µM"}, "[4]": {"conditions": "second compound 0.316 µM, first compound 0.1 µM"}, "[5]": {"conditions": "second compound 1 µM, first compound 0.0316 µM"}, "[6]": {"conditions": "second compound 1 µM, first compound 0.1 µM"}}, "note": "pIC50: −log10 of the molar value.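 Further: spheroids exposed to agents for 7 days.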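 Wherever viability, T/C is given: 100% = DMSO vehicle control wells.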"}
{"smiles": "Cn1ncnc1[C@H]1c2n[nH]c(=O)c3cc(F)cc(c23)N[C@@H]1c1ccc(F)cc1", "note": "+ CCN1CCN(Cc2ccc(Nc3ncc(F)c(-c4cc(F)c5nc(C)n(C(C)C)c5c4)n3)nc2)CC1", "values": [{"measurement": "pIC50", "setting": "second compound 0.01 µM", "result": "< 7.00"}, {"measurement": "pIC50", "setting": "second compound 0.0316 µM", "result": "< 7.00"}, {"measurement": "pIC50", "setting": "second compound 0.1 µM", "result": "< 7.00"}, {"measurement": "pIC50", "setting": "second compound 0.316 µM", "result": 7.49}, {"measurement": "pIC50", "setting": "second compound 1 µM", "result": "< 7.00"}, {"measurement": "viability, T/C", "setting": "second compound 0.01 µM, first compound 0.000316 µM", "result": 90.1, "unit": "%"}, {"measurement": "viability, T/C", "setting": "second compound 0.01 µM, first compound 0.001 µM", "result": 93.3, "unit": "%"}, {"measurement": "viability, T/C", "setting": "second compound 0.01 µM, first compound 0.00316 µM", "result": 66.3, "unit": "%"}, {"measurement": "viability, T/C", "setting": "second compound 0.01 µM, first compound 0.01 µM", "result": 84, "unit": "%"}, {"measurement": "viability, T/C", "setting": "second compound 0.01 µM, first compound 0.0316 µM", "result": 75, "unit": "%"}, {"measurement": "viability, T/C", "setting": "second compound 0.01 µM, first compound 0.1 µM", "result": 66, "unit": "%"}, {"measurement": "viability, T/C", "setting": "second compound 0.0316 µM, first compound 0.000316 µM", "result": 83.6, "unit": "%"}, {"measurement": "viability, T/C", "setting": "second compound 0.0316 µM, first compound 0.001 µM", "result": 75.1, "unit": "%"}, {"measurement": "viability, T/C", "setting": "second compound 0.0316 µM, first compound 0.00316 µM", "result": 67.8, "unit": "%"}, {"measurement": "viability, T/C", "setting": "second compound 0.0316 µM, first compound 0.01 µM", "result": 46.2, "unit": "%"}, {"measurement": "viability, T/C", "setting": "second compound 0.0316 µM, first compound 0.0316 µM", "result": 52.8, "unit": "%"}, {"measurement": "viability, T/C", "setting": "second compound 0.0316 µM, first compound 0.1 µM", "result": 67.4, "unit": "%"}, {"measurement": "viability, T/C", "setting": "second compound 0.1 µM, first compound 0.000316 µM", "result": 68.8, "unit": "%"}, {"measurement": "viability, T/C", "setting": "second compound 0.1 µM, first compound 0.001 µM", "result": 64.6, "unit": "%"}, {"measurement": "viability, T/C", "setting": "second compound 0.1 µM, first compound 0.00316 µM", "result": 60.8, "unit": "%"}, {"measurement": "viability, T/C", "setting": "second compound 0.1 µM, first compound 0.01 µM", "result": 56.6, "unit": "%"}, {"measurement": "viability, T/C", "setting": "[1]", "result": 50.2, "unit": "%"}, {"measurement": "viability, T/C", "setting": "[2]", "result": 59.4, "unit": "%"}, {"measurement": "viability, T/C", "setting": "second compound 0.316 µM, first compound 0.000316 µM", "result": 59.2, "unit": "%"}, {"measurement": "viability, T/C", "setting": "second compound 0.316 µM, first compound 0.001 µM", "result": 53.8, "unit": "%"}, {"measurement": "viability, T/C", "setting": "second compound 0.316 µM, first compound 0.00316 µM", "result": 49.3, "unit": "%"}, {"measurement": "viability, T/C", "setting": "second compound 0.316 µM, first compound 0.01 µM", "result": 54, "unit": "%"}, {"measurement": "viability, T/C", "setting": "[3]", "result": 56.8, "unit": "%"}, {"measurement": "viability, T/C", "setting": "[4]", "result": 43.4, "unit": "%"}, {"measurement": "viability, T/C", "setting": "second compound 1 µM, first compound 0.000316 µM", "result": 70.8, "unit": "%"}, {"measurement": "viability, T/C", "setting": "second compound 1 µM, first compound 0.001 µM", "result": 73.7, "unit": "%"}, {"measurement": "viability, T/C", "setting": "second compound 1 µM, first compound 0.00316 µM", "result": 70.5, "unit": "%"}, {"measurement": "viability, T/C", "setting": "second compound 1 µM, first compound 0.01 µM", "result": 60.2, "unit": "%"}, {"measurement": "viability, T/C", "setting": "[5]", "result": 56.6, "unit": "%"}, {"measurement": "viability, T/C", "setting": "[6]", "result": 58.2, "unit": "%"}]}
{"smiles": "Cc1nc(NC(=O)N2CCCC2C(N)=O)sc1-c1ccnc(C(C)(C)C(F)(F)F)c1", "note": "(stereo not given) + CC(C)NCC(C(=O)N1CCN(c2ncnc3c2C(C)CC3O)CC1)c1ccc(Cl)cc1", "values": [{"measurement": "pIC50", "setting": "second compound 0.1 µM", "result": 6.87}, {"measurement": "pIC50", "setting": "second compound 0.316 µM", "result": 7.20}, {"measurement": "pIC50", "setting": "second compound 1 µM", "result": "> 7.50"}, {"measurement": "pIC50", "setting": "second compound 3.16 µM", "result": "> 7.50"}, {"measurement": "pIC50", "setting": "second compound 10 µM", "result": "> 7.50"}, {"measurement": "viability, T/C", "setting": "[1]", "result": 72.7, "unit": "%"}, {"measurement": "viability, T/C", "setting": "[2]", "result": 49.6, "unit": "%"}, {"measurement": "viability, T/C", "setting": "second compound 0.1 µM, first compound 0.316 µM", "result": 38.1, "unit": "%"}, {"measurement": "viability, T/C", "setting": "second compound 0.1 µM, first compound 1 µM", "result": 34.2, "unit": "%"}, {"measurement": "viability, T/C", "setting": "second compound 0.1 µM, first compound 3.16 µM", "result": 20.7, "unit": "%"}, {"measurement": "viability, T/C", "setting": "second compound 0.1 µM, first compound 10 µM", "result": 12.2, "unit": "%"}, {"measurement": "viability, T/C", "setting": "[3]", "result": 54.4, "unit": "%"}, {"measurement": "viability, T/C", "setting": "[4]", "result": 49.1, "unit": "%"}, {"measurement": "viability, T/C", "setting": "second compound 0.316 µM, first compound 0.316 µM", "result": 32.3, "unit": "%"}, {"measurement": "viability, T/C", "setting": "second compound 0.316 µM, first compound 1 µM", "result": 26.7, "unit": "%"}, {"measurement": "viability, T/C", "setting": "second compound 0.316 µM, first compound 3.16 µM", "result": 16.2, "unit": "%"}, {"measurement": "viability, T/C", "setting": "second compound 0.316 µM, first compound 10 µM", "result": 11.1, "unit": "%"}, {"measurement": "viability, T/C", "setting": "[5]", "result": 46.6, "unit": "%"}, {"measurement": "viability, T/C", "setting": "[6]", "result": 32.7, "unit": "%"}, {"measurement": "viability, T/C", "setting": "second compound 1 µM, first compound 0.316 µM", "result": 30.9, "unit": "%"}, {"measurement": "viability, T/C", "setting": "second compound 1 µM, first compound 1 µM", "result": 20.9, "unit": "%"}, {"measurement": "viability, T/C", "setting": "second compound 1 µM, first compound 3.16 µM", "result": 15.6, "unit": "%"}, {"measurement": "viability, T/C", "setting": "second compound 1 µM, first compound 10 µM", "result": 9.52, "unit": "%"}, {"measurement": "viability, T/C", "setting": "second compound 3.16 µM, first compound 0.0316 µM", "result": 38.4, "unit": "%"}, {"measurement": "viability, T/C", "setting": "second compound 3.16 µM, first compound 0.1 µM", "result": 28.4, "unit": "%"}, {"measurement": "viability, T/C", "setting": "second compound 3.16 µM, first compound 0.316 µM", "result": 24.2, "unit": "%"}, {"measurement": "viability, T/C", "setting": "second compound 3.16 µM, first compound 1 µM", "result": 18.3, "unit": "%"}, {"measurement": "viability, T/C", "setting": "second compound 3.16 µM, first compound 3.16 µM", "result": 14.4, "unit": "%"}, {"measurement": "viability, T/C", "setting": "second compound 3.16 µM, first compound 10 µM", "result": 7.8, "unit": "%"}, {"measurement": "viability, T/C", "setting": "second compound 10 µM, first compound 0.0316 µM", "result": 31.6, "unit": "%"}, {"measurement": "viability, T/C", "setting": "second compound 10 µM, first compound 0.1 µM", "result": 24.6, "unit": "%"}, {"measurement": "viability, T/C", "setting": "second compound 10 µM, first compound 0.316 µM", "result": 16.5, "unit": "%"}, {"measurement": "viability, T/C", "setting": "second compound 10 µM, first compound 1 µM", "result": 10.8, "unit": "%"}, {"measurement": "viability, T/C", "setting": "second compound 10 µM, first compound 3.16 µM", "result": 9.96, "unit": "%"}, {"measurement": "viability, T/C", "setting": "second compound 10 µM, first compound 10 µM", "result": 5.52, "unit": "%"}]}
